Assay results: US20170066717A1, “NEW PHENYLAZETIDINECARBOXYLATE OR -CARBOXAMIDE COMPOUNDS” (INVENTIVA, priority 2014, published 2017)

Legend:
[1] = molecular target: T1, NURR-1/RXRγ (Homo sapiens, UniProt P48443); assay: Transactivation test, NURR-1-Gal4/RXRγ, luciferase reporter in Cos-7 cells; format: cell-based
T1 construct: expressed in transfected cells; host or cells: Cos-7 cells

[2] = tested on: dopaminergic neurons of primary culture of rat embryo mesencephalon treated with MPP+; assay: Neuroprotection in primary culture of rat embryo mesencephalon treated with MPP+ (count of tyrosine hydroxylase expressing cells); format: cell-based; settings: recombinant human BDNF 10 ng/mL = 100%, 2 days with MPP+
Experimental: Another in vitro test was carried out with the compounds according to the invention, for the purpose of verifying that the molecules indeed have the expected neuroprotective effect in vitro.
The compounds were tested in a model of primary culture of rat embryo mesencephalon treated with 1-methyl-4-phenylpyridinium (MPP+), which is the active metabolite of 1-methyl-4-phenyl-1,2,3,6-tetrahydropyridine (MPTP). MPP+ enters into dopananergic neurons via the dopamine transporter and causes the death of these dopaminergic neurons. The following protocol was used.
Gestating female rats (15 days of gestation) were euthanized and the rat embryos were removed. The mesencephalons were removed. The tissue was then dissociated mechanically and by using trypsin. The cells collected after centrifugation were distributed into 96-well plates and left to stand for 5 days. The culture conditions made it possible to obtain a cell layer composed of neurons (dopaminergic and others) and astrocytes. On the 6th day, the cells were optionally treated with MPP+ in the presence or absence of test compound. After 2 days of incubation, the cells were fixed and various cell labellings were carried out; staining of the nuclei with the Hoechst fluorescent label and immunolabelling of tyrosine hydroxylase. The cells expressing tyrosine hydroxylase were counted using an image analyzer coupled to an optical microscope.
Recombinant human BDNF trophic factor (10 ng/mL) was used as reference. The activities of the compounds are given as percentages of activity relative to the BDNF reference, the activity of which is arbitrarily defined as being equal to 100%.

[3] = Brain penetration in rats after intravenous administration; format: in vivo; settings: rat
Experimental: (§1) Three series of in vivo tests were carried out with compounds representative of the invention, for the purpose of determining their pharmacokinetic plasma profile and their brain penetration.
2. Study of the Brain Penetration in Rats After Intravenous Administration
Male Wistar rats (250-300 g) originating from the establishment Janvier, Le Genest-St-Isle, France were used for this study (4 rats per study). The animals were fed with standard feed for rodents (Purina Mills, St. Louis, Mo.), placed in cages and subjected to light/darkness cycles of 12 h/12 h, the room temperature being maintained at 22±2° C. and the humidity level at 55±10%. The rats were not deprived food before the administration. Water was provided at will throughout the study.
The test compound was administered intravenously at 4 mg/kg by infusion into the jugular vein for 4 hours. For the intravenous administration, the animals were infused with 12 mL/kg of a solution of the test compound, prepared in 2% Cremophor EL/0.9% NaCl.
The animals were sacrificed under anesthesia after 4 hours of infusion. The blood and the brain were collected from each sacrificed animal 0.5 mL of blood collected in 1.5 mL tubes containing 20 μL of evaporated anticoagulant (solution of sodium heparinate at 1000 IU/mL) was centrifuged at 4500 g for 3 min in order to obtain approximately 200 μL of plasma. The plasma was divided up into 2 aliquots of 70 μL minimum, which were stored at −20° C. until they were treated by protein precipitation and then analysis by liquid chromatography coupled to tandem mass spectrometry (LC-MS/MS) in order to quantify the compound tested.
The brains were immersed in liquid nitrogen directly after they were removed, then stored at −20° C. for analysis. The brains were then ground in the presence of an aqueous/organic solvent mixture in order to obtain a homogenate. These homogenates were then centrifuged and the compound tested was extracted from the supernatant obtained, by liquid-liquid extraction, and then quantified by LC-MS/MS.
The brain penetration in the rats is represented by the Kp, which is the partition coefficient between the brain and the plasma. It is calculated by the ratio of the concentration measured in the brain (Cmax brain) and the plasma (Cmax plasma) after the 4 hours of infusion.

[4] = molecular target: T2, NURR-1/RXRα (Homo sapiens, UniProt P19793); assay: Transactivation test, NURR-1-Gal4/RXRα, luciferase reporter in Cos-7 cells; format: cell-based
T2 construct: expressed in transfected cells; host or cells: Cos-7 cells
T2 sequence (P19793 whole entry, the tested form may be a part): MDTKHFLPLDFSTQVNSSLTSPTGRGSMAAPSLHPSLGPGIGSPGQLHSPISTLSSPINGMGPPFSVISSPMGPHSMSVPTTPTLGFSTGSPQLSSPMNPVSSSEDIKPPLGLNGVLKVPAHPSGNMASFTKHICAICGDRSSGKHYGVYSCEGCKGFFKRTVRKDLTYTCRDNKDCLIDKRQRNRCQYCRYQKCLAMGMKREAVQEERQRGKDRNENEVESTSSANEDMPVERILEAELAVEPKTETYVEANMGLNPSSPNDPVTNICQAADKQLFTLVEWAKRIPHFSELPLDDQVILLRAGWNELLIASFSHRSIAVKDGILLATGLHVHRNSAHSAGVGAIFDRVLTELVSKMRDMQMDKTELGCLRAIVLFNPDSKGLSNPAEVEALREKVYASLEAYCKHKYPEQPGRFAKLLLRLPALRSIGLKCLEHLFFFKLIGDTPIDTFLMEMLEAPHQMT
T2 sequence (P43354 whole entry partner, the tested form may be a part): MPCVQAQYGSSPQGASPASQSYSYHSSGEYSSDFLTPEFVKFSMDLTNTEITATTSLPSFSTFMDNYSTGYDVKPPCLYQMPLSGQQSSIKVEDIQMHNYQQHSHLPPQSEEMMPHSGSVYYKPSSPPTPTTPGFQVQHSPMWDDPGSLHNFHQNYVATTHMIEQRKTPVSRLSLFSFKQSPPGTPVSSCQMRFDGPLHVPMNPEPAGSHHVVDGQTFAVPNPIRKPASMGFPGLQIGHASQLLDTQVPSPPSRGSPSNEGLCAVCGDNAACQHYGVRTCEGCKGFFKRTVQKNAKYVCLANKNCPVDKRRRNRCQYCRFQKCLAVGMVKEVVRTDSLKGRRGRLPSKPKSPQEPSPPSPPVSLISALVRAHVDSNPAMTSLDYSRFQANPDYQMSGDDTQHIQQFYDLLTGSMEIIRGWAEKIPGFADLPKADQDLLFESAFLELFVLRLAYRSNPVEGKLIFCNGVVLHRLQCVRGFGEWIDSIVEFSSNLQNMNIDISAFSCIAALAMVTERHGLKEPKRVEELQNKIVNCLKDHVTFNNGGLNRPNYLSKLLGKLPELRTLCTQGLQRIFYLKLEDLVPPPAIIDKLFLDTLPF
T2 sequence (P04386 1-147 partner limits assumed): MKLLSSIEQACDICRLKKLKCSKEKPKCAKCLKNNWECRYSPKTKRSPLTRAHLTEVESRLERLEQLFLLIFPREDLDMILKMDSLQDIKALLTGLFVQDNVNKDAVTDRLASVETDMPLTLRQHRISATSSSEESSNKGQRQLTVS

[5] = Plasma pharmacokinetics in mice after oral administration; format: in vivo; settings: mouse, male C57/Bl6 mice, oral 10 mg/kg
Experimental: as §1
1. Study of the Plasma Phannacokinectis in Mice After Oral Administration
Male C57/B16 mice (25-30 g) originating from the establishment Janvier, Le Genest-St-Isle, France were used for this study (9 mice per dose). The animals were fed with standard feed for rodents (Purina Mills, St. Louis, Mo.), placed in cages and subjected to light/darkness cycles of 12 h/12 h, the temperature of the room being maintained at 22±2° C. and the humidity level at 55±10%.
The mice were not deprived food before the administration. Water was provided at will throughout the study. The test compound was admistered orally at 10 mg/kg. For the oral administration at 10 mg/kg, the animals were green, by gavage, 10 mL/kg of a suspension of the test compound, prepared in 1% methylcellulose, 400 cps/0.1% Poloxamer 188/water.
The animals were sacrificed under anesthesia at times 15 min, 30 min, 1 h, 3 h and 7 h after gavage. The blood was collected at each time, and from each animal sacrificed 0.5 mL of blood collected in 1.5 mL tubes containing 20 μL of evaporated anticoagulant (solution of sodium heparinate at 1000 IU/mL) was centrifuged at 4500 g for 3 min in order to obtain approximately 200 μL of plasma. The plasma was divided up into 2 aliquots of 70 μL minimum, which were stoted at −20° C. until they were treated by protein precipitation and then analysis by liquid chromatography coupled to tandem mass spectrometry (LC-MS/MS) in order to quantify the compound tested.
The pharmacokinetic plasma parameters in the mice after oral administration were determined using a non-compartmental approach with the Phoenix WinNonLin software. The area under the curve (AUC0-1) was determined bv the log-linear trapezoidal method. The tesults are brought together in the following table.

T1 sequence (P48443 whole entry, the tested form may be a part): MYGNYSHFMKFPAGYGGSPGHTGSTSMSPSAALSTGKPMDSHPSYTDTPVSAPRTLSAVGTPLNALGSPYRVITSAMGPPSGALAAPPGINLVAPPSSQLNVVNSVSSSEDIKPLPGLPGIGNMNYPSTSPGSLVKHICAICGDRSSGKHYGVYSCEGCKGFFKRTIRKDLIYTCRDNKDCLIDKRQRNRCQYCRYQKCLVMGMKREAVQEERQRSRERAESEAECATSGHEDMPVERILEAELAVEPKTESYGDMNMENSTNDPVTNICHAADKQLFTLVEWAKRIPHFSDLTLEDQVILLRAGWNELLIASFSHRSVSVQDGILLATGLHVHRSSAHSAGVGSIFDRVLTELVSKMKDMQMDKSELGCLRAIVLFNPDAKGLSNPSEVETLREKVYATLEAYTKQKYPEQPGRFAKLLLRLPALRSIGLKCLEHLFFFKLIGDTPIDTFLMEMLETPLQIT
T1 sequence (P43354 whole entry partner, the tested form may be a part): as the sequence (P43354 whole entry partner, the tested form may be a part) above
T1 sequence (P04386 1-147 partner limits assumed): as the sequence (P04386 1-147 partner limits assumed) above

O=C(O)C1CN(c2cccc(N3c4ccc(C(F)(F)F)cc4CC3Cc3ccccc3)c2)C1 (stereo not shown) [Example 147, 1-[3-[2-benzyl-5-(trifluoromethyl)indolin-1-yl]phenyl]azetidine-3 carboxylic acid]
Emax ([1]; COS-7, induction level relative to reference XCT0135908 at 2×10^−5 M (=100%), read-out: hNurr1_RXRgFL Emax (%)): 50%
EC50 ([1]; Cos-7 cells, NURR-1-Gal4/RXRγ, luciferase reporter, read-out: hNurr1_RXRgFL EC50): 87 nM
percentage of activity relative to the BDNF reference ([2]; compound 1 μM): 53%
percentage of activity relative to the BDNF reference ([2]; compound 10 μM): 104%
Kp at 4 h ([3]; male, Wistar, intravenous, 4 mg/kg, ratio of Cmax brain to Cmax plasma after the 4 hours of infusion, rats, read-out: Kp (partition coefficient between the brain and the plasma)): 0.12
Cmax at 4 h ([3]; male Wistar rats, 4 mg/kg iv infusion into the jugular vein for 4 hours, plasma at end of infusion): 7910 ng/mL
Emax ([4]; COS-7, induction level relative to reference XCT0135908 at 2×10^−5 M (=100%), read-out: hNurr1_RXRaFL Emax (%)): 68%
EC50 ([4]; Cos-7 cells, NURR-1-Gal4/RXRα, luciferase reporter, read-out: hNurr1_RXRaFL EC50): 44 nM
AUC ([5]; sampling 15 min to 7 h, log-linear trapezoidal method, read-out: AUCplasma): 143 µg·h/mL
Cmax ([5]; suspension in 1% methylcellulose/0.1% Poloxamer 188): 33000 ng/mL
